In patent publication US20240025906A1 (NEURON23, INC., priority 2022, published 2024) one finds Kd and IC50 data, which are given here for eleven compounds.

For one test, the target named is T1, TYK2 JH2 (Homo sapiens, UniProt P29597).
T1 construct: purchased DiscoverX (KINOMEscan KdELECT service); host or cells: E. coli BL21-derived (T7 phage display) or HEK-293
The test can be described thus: TYK2 JH2 binding assay (KINOMEscan KdELECT competitive binding). The settings on record: TYK2 JH2 domain, DiscoverX KINOMEscan KdELECT (Assay A); read-out: Biochemical TYK2_DiscoverX_JH2_BND_Kd. A digest of the protocol: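 Competition binding, KdELECT format. Kinase (phage-tagged, E. coli BL21-derived host; or HEK-293, DNA-tagged) + ligand-coated streptavidin beads + cpd, 1 h RT, final DMSO 0.9%. Wash, elute 30 min with 0.5 μM non-biotinylated ligand; qPCR readout. Kd: 11-pt, 3-fold series.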

Test [1] has as its system JAK1/TYK2 pSTAT5 (Tyr694/699) in THP-1 cell line. Briefly: IFNa-stimulated JAK1/TYK2 pSTAT5 (Tyr694/699) inhibition cellular assay, AlphaLISA. In kind it is cell-based. The settings on record: Homo sapiens; THP-1 cells, IFNa-stimulated, AlphaLISA (Assay B); read-out: Cellular_THP1_IFNa-pSTATS_TYK2. A digest of the protocol:
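THP-1, 2e4 cells/well, HBSS; cpd 1 h 37 °C (10000–0.04 nM final, 6-fold, 8 pt); IFNa 100 ng/mL added, 30 min; lyse, freeze −80 °C; pSTAT5 AlphaLISA, 615 nm; 4PL IC50, bottom fixed 0, slope −1.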
(Bead proximity is the source of the signal in Alpha formats.)

T1 sequence (P29597 589-875 limits assumed): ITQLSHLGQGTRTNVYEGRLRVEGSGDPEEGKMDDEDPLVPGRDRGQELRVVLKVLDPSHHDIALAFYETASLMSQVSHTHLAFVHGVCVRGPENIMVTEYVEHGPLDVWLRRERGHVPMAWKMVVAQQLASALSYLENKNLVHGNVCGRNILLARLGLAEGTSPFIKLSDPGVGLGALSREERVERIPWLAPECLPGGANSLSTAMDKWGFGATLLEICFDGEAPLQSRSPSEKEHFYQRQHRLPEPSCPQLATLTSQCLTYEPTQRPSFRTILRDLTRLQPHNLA

As to `CNc1ncc(-c2nc3cc(C4=CCOCC4)ccc3o2)c2cc(NC(=O)C3CC3)ncc12` [Example 342, N-(5-(5-(3,6-dihydro-2H-pyran-4-yl)benzo[d]oxazol-2-yl)-8-(methylamino)-2,7-naphthyridin-3-yl)cyclopropanecarboxamide], the Kd at TYK2 JH2 is not above 100 nM. The IC50 in test [1] is not above 500 nM.
Taken in the same sequence, the figures for `CNc1ncc(-c2nc3cc(C4CCCO4)ccc3o2)c2cc(NC(=O)C3CC3)ncc12` (stereo not shown) [Example 343, N-(8-(methylamino)-5-(5-(tetrahydrofuran-2-yl)benzo[d]oxazol-2-yl)-2,7-naphthyridin-3-yl)cyclopropanecarboxamide] were not above 100 nM and not above 500 nM.
Taken in the same sequence, the figures for `CNc1ncc(-c2nc3cc(CCC#N)ccc3o2)c2cc(NC(=O)C3CC3)ncc12` [Example 344, N-(5-(5-(2-cyanoethyl)benzo[d]oxazol-2-yl)-8-(methylamino)-2,7-naphthyridin-3-yl)cyclopropanecarboxamide] were not above 100 nM and not above 500 nM.
For `CNc1ncc(-c2nc3cc(N4CCOCC4)ccc3o2)c2cc(NC(=O)C3CC3)ncc12` [Example 345, N-(8-(methylamino)-5-(5-morpholinobenzo[d]oxazol-2-yl)-2,7-naphthyridin-3-yl)cyclopropanecarboxamide] the same measures were not above 100 nM and not above 500 nM.
In the case of `CNc1ncc(-c2nc3cc(OC4CCC4C(C)(C)OC)ccc3o2)c2cc(NC(=O)C3CC3)ncc12` (stereo not shown) [Example 346, N-(5-(5-(2-(2-methoxypropan-2-yl)cyclobutoxy)benzo[d]oxazol-2-yl)-8-(methylamino)-2,7-naphthyridin-3-yl)cyclopropanecarboxamide], the Kd on TYK2 JH2 was not above 100 nM. In test [1], the IC50 was not above 500 nM.
For the compound `CNc1ncc(-c2nc3cc(O[C@H]4C[C@@H](COC)C4)ccc3o2)c2cc(NC(=O)C3CC3)ncc12` [Example 347, N-(5-(5-((1s,3s)-3-(methoxymethyl)cyclobutoxy)benzo[d]oxazol-2-yl)-8-(methylamino)-2,7-naphthyridin-3-yl)cyclopropanecarboxamide], the Kd at TYK2 JH2 was not above 100 nM. Besides, the IC50 in test [1] was not above 500 nM.
Turning to `CNc1ncc(-c2nc3cc(O[C@H]4C[C@H](COC)C4)ccc3o2)c2cc(NC(=O)C3CC3)ncc12` [Example 348, N-(5-(5-((1r,3r)-3-(methoxymethyl)cyclobutoxy)benzo[d]oxazol-2-yl)-8-(methylamino)-2,7-naphthyridin-3-yl)cyclopropanecarboxamide], at TYK2 JH2, the Kd is not above 100 nM. For the same compound, in test [1], the IC50 was not above 500 nM.
For `CNc1ncc(-c2nc3cc(OCC45CCCN4CCC5)ccc3o2)c2cc(NC(=O)C3CC3)ncc12` [Example 349, N-(8-(methylamino)-5-(5-((tetrahydro-1H-pyrrolizin-7a(5H)-yl)methoxy)benzo[d]oxazol-2-yl)-2,7-naphthyridin-3-yl)cyclopropanecarboxamide] the same measures were not above 100 nM and not above 500 nM.
`CNc1ncc(-c2nc3cc(O[C@@H](C)COC)ccc3o2)c2cc(NC(=O)C3CC3)ncc12` [Example 350, (S)—N-(5-(5-((1-methoxypropan-2-yl)oxy)benzo[d]oxazol-2-yl)-8-(methylamino)-2,7-naphthyridin-3-yl)cyclopropanecarboxamide]: the Kd on TYK2 JH2 was not above 100 nM. The IC50 in test [1] was not above 500 nM.
For `CNc1ncc(-c2nc3cc(O[C@H](C)COC)ccc3o2)c2cc(NC(=O)C3CC3)ncc12` [Example 351, (R)—N-(5-(5-((1-methoxypropan-2-yl)oxy)benzo[d]oxazol-2-yl)-8-(methylamino)-2,7-naphthyridin-3-yl)cyclopropanecarboxamide] the same measures were not above 100 nM and not above 500 nM.
Turning to `CNc1ncc(-c2nc3cc(OCC(C)(C)N4CCOCC4)ccc3o2)c2cc(NC(=O)C3CC3)ncc12` [Example 352, N-(5-(5-(2-methyl-2-morpholinopropoxy)benzo[d]oxazol-2-yl)-8-(methylamino)-2,7-naphthyridin-3-yl)cyclopropanecarboxamide], the Kd on TYK2 JH2 is not above 100 nM. In addition, the IC50 in test [1] is not above 500 nM.
